“And” between values parts separate entries of the source, which are not always exact repeats. Equal values may be shown once.
Settings: Gas

O=C(C(F)(F)C(F)(F)F)C(F)(C(F)(F)F)C(F)(F)F [dodecafluoro-2-methylpentan-3-one]
Settings	thermal conductivity
454.15 K, 782 kPa, transient hot wire	0.02353 W/m/K
454.15 K, 47000 kPa, transient hot wire	0.06263 W/m/K
454.17 K, 779 kPa, transient hot wire	0.02342 W/m/K
454.18 K, 46933 kPa, transient hot wire	0.06269 W/m/K and 0.06261 W/m/K
454.2 K, 169 kPa, hot wire	0.0226 W/m/K
454.2 K, 1365 kPa, transient hot wire	0.0246 W/m/K
454.21 K, 169 kPa, hot wire	0.02248 W/m/K
454.21 K, 1366 kPa, transient hot wire	0.02448 W/m/K
454.22 K, 47 kPa, hot wire	0.0225 W/m/K and 0.02246 W/m/K
454.23 K, 526 kPa, transient hot wire	0.02368 W/m/K
454.26 K, 526 kPa, transient hot wire	0.02374 W/m/K
454.32 K, 351 kPa, transient hot wire	0.02402 W/m/K
454.32 K, 354 kPa, transient hot wire	0.02406 W/m/K
454.33 K, 781 kPa, transient hot wire	0.02352 W/m/K
454.36 K, 1365 kPa, transient hot wire	0.02461 W/m/K
454.38 K, 1365 kPa, transient hot wire	0.02468 W/m/K
454.41 K, 524 kPa, transient hot wire	0.02367 W/m/K
454.41 K, 526 kPa, transient hot wire	0.02369 W/m/K
454.49 K, 780 kPa, transient hot wire	0.02364 W/m/K
454.5 K, 345 kPa, transient hot wire	0.02401 W/m/K
454.5 K, 348 kPa, transient hot wire	0.02403 W/m/K
454.5 K, 779 kPa, transient hot wire	0.02369 W/m/K
454.54 K, 1365 kPa, transient hot wire	0.02476 W/m/K
454.58 K, 524 kPa, transient hot wire	0.02372 W/m/K
454.6 K, 523 kPa, transient hot wire	0.02364 W/m/K
454.67 K, 776 kPa, transient hot wire	0.0236 W/m/K
454.68 K, 341 kPa, transient hot wire	0.02404 W/m/K
454.68 K, 343 kPa, transient hot wire	0.02408 W/m/K
454.68 K, 778 kPa, transient hot wire	0.02361 W/m/K
454.78 K, 524 kPa, transient hot wire	0.02371 W/m/K
454.79 K, 524 kPa, transient hot wire	0.02372 W/m/K
454.86 K, 776 kPa, transient hot wire	0.02365 W/m/K
454.87 K, 339 kPa, transient hot wire	0.02408 W/m/K
454.87 K, 774 kPa, transient hot wire	0.02365 W/m/K
454.88 K, 340 kPa, transient hot wire	0.02406 W/m/K
454.98 K, 523 kPa, transient hot wire	0.02378 W/m/K and 0.02375 W/m/K
455.07 K, 337 kPa, transient hot wire	0.02422 W/m/K
455.08 K, 338 kPa, transient hot wire	0.02415 W/m/K
472.48 K, 3077 kPa, transient hot wire	0.03434 W/m/K
472.49 K, 3077 kPa, transient hot wire	0.03339 W/m/K
472.51 K, 2894 kPa, transient hot wire	0.03274 W/m/K
472.53 K, 2894 kPa, transient hot wire	0.034 W/m/K
472.53 K, 3077 kPa, transient hot wire	0.034 W/m/K
472.55 K, 3077 kPa, transient hot wire	0.03381 W/m/K
472.57 K, 2711 kPa, transient hot wire	0.03198 W/m/K
472.58 K, 2894 kPa, transient hot wire	0.03316 W/m/K
472.59 K, 2711 kPa, transient hot wire	0.03186 W/m/K
472.59 K, 2894 kPa, transient hot wire	0.03275 W/m/K
472.59 K, 3077 kPa, transient hot wire	0.03373 W/m/K
472.6 K, 3077 kPa, transient hot wire	0.03356 W/m/K
472.62 K, 3291 kPa, transient hot wire	0.03462 W/m/K
472.63 K, 2711 kPa, transient hot wire	0.03247 W/m/K
472.64 K, 2711 kPa, transient hot wire	0.03224 W/m/K
472.64 K, 2894 kPa, transient hot wire	0.03315 W/m/K and 0.03273 W/m/K
472.65 K, 3077 kPa, transient hot wire	0.03407 W/m/K and 0.03386 W/m/K
472.67 K, 2504 kPa, transient hot wire	0.03029 W/m/K
472.67 K, 3291 kPa, transient hot wire	0.03475 W/m/K and 0.03505 W/m/K
472.68 K, 2504 kPa, transient hot wire	0.02998 W/m/K
472.68 K, 2894 kPa, transient hot wire	0.03347 W/m/K
472.7 K, 2711 kPa, transient hot wire	0.0322 W/m/K
472.7 K, 2712 kPa, transient hot wire	0.03222 W/m/K
472.7 K, 3078 kPa, transient hot wire	0.03422 W/m/K and 0.0347 W/m/K
472.7 K, 4062 kPa, transient hot wire	0.03638 W/m/K
472.71 K, 2894 kPa, transient hot wire	0.03401 W/m/K
472.71 K, 4063 kPa, transient hot wire	0.03625 W/m/K
472.73 K, 3291 kPa, transient hot wire	0.03502 W/m/K and 0.03525 W/m/K
472.73 K, 3605 kPa, transient hot wire	0.036 W/m/K
472.74 K, 3604 kPa, transient hot wire	0.03572 W/m/K
472.75 K, 2505 kPa, transient hot wire	0.03037 W/m/K
472.75 K, 2894 kPa, transient hot wire	0.0336 W/m/K
472.75 K, 4063 kPa, transient hot wire	0.03659 W/m/K
472.76 K, 2711 kPa, transient hot wire	0.03263 W/m/K
472.77 K, 2712 kPa, transient hot wire	0.03232 W/m/K
472.77 K, 2894 kPa, transient hot wire	0.03342 W/m/K
472.77 K, 4063 kPa, transient hot wire	0.0364 W/m/K
472.78 K, 3291 kPa, transient hot wire	0.03545 W/m/K
472.78 K, 3605 kPa, transient hot wire	0.03545 W/m/K
472.8 K, 4819 kPa, transient hot wire	0.03773 W/m/K
472.81 K, 2264 kPa, transient hot wire	0.02846 W/m/K
472.81 K, 2265 kPa, transient hot wire	0.02848 W/m/K
472.81 K, 4062 kPa, transient hot wire	0.03638 W/m/K
472.81 K, 4820 kPa, transient hot wire	0.03801 W/m/K
472.82 K, 2505 kPa, transient hot wire	0.03067 W/m/K and 0.03052 W/m/K
472.83 K, 2712 kPa, transient hot wire	0.03316 W/m/K
472.83 K, 3291 kPa, transient hot wire	0.03561 W/m/K
472.83 K, 4063 kPa, transient hot wire	0.03659 W/m/K
472.84 K, 2711 kPa, transient hot wire	0.03262 W/m/K
472.85 K, 3605 kPa, transient hot wire	0.03577 W/m/K
472.86 K, 3292 kPa, transient hot wire	0.03541 W/m/K
472.86 K, 3605 kPa, transient hot wire	0.0358 W/m/K
472.87 K, 2265 kPa, transient hot wire	0.02848 W/m/K
472.87 K, 4820 kPa, transient hot wire	0.03777 W/m/K
472.88 K, 4820 kPa, transient hot wire	0.03795 W/m/K
472.91 K, 4063 kPa, transient hot wire	0.03666 W/m/K
472.92 K, 4063 kPa, transient hot wire	0.03656 W/m/K
472.93 K, 3605 kPa, transient hot wire	0.03577 W/m/K
472.94 K, 4821 kPa, transient hot wire	0.03795 W/m/K
472.95 K, 4821 kPa, transient hot wire	0.03782 W/m/K
472.96 K, 2265 kPa, transient hot wire	0.02876 W/m/K
472.96 K, 4064 kPa, transient hot wire	0.03659 W/m/K
472.97 K, 2265 kPa, transient hot wire	0.02862 W/m/K
472.98 K, 4064 kPa, transient hot wire	0.0367 W/m/K
472.99 K, 3605 kPa, transient hot wire	0.03603 W/m/K
472.99 K, 3606 kPa, transient hot wire	0.0358 W/m/K
472.99 K, 5939 kPa, transient hot wire	0.03924 W/m/K
473.01 K, 4823 kPa, transient hot wire	0.03784 W/m/K
473.03 K, 4823 kPa, transient hot wire	0.038 W/m/K
473.06 K, 1890 kPa, transient hot wire	0.02666 W/m/K
473.06 K, 2265 kPa, transient hot wire	0.02868 W/m/K
473.06 K, 5939 kPa, transient hot wire	0.03956 W/m/K
473.07 K, 605 kPa, hot wire	0.02596 W/m/K
473.08 K, 606 kPa, hot wire	0.02604 W/m/K
473.08 K, 1889 kPa, transient hot wire	0.02628 W/m/K
473.08 K, 2265 kPa, transient hot wire	0.02867 W/m/K
473.08 K, 5937 kPa, transient hot wire	0.03959 W/m/K
473.1 K, 4824 kPa, transient hot wire	0.03789 W/m/K and 0.03779 W/m/K
473.11 K, 430 kPa, hot wire	0.0254 W/m/K
473.13 K, 429 kPa, hot wire	0.02498 W/m/K
473.14 K, 204 kPa, hot wire	0.0245 W/m/K and 0.02427 W/m/K
473.14 K, 5937 kPa, transient hot wire	0.03959 W/m/K and 0.03958 W/m/K
473.15 K, 1888 kPa, transient hot wire	0.0266 W/m/K
473.16 K, 2265 kPa, transient hot wire	0.02905 W/m/K
473.17 K, 607 kPa, hot wire	0.02579 W/m/K
473.17 K, 2265 kPa, transient hot wire	0.0291 W/m/K
473.18 K, 607 kPa, hot wire	0.02602 W/m/K
473.19 K, 7819 kPa, transient hot wire	0.04147 W/m/K
473.19 K, 49267 kPa, transient hot wire	0.06278 W/m/K
473.21 K, 47 kPa, hot wire	0.02404 W/m/K
473.21 K, 427 kPa, hot wire	0.02512 W/m/K
473.21 K, 49264 kPa, transient hot wire	0.06294 W/m/K
473.22 K, 426 kPa, hot wire	0.02501 W/m/K
473.22 K, 5937 kPa, transient hot wire	0.03959 W/m/K
473.23 K, 47 kPa, hot wire	0.02385 W/m/K
473.24 K, 203 kPa, hot wire	0.02435 W/m/K and 0.02438 W/m/K
473.24 K, 5937 kPa, transient hot wire	0.03993 W/m/K
473.26 K, 49261 kPa, transient hot wire	0.06261 W/m/K
473.26 K, 49266 kPa, transient hot wire	0.06275 W/m/K
473.27 K, 607 kPa, hot wire	0.02598 W/m/K and 0.02584 W/m/K
473.27 K, 1888 kPa, transient hot wire	0.02674 W/m/K
473.27 K, 49222 kPa, transient hot wire	0.06278 W/m/K
473.27 K, 49223 kPa, transient hot wire	0.06286 W/m/K
473.28 K, 47 kPa, hot wire	0.02405 W/m/K
473.28 K, 1888 kPa, transient hot wire	0.02686 W/m/K
473.28 K, 7819 kPa, transient hot wire	0.0414 W/m/K
473.29 K, 423 kPa, hot wire	0.02534 W/m/K
473.29 K, 5935 kPa, transient hot wire	0.03933 W/m/K
473.29 K, 7822 kPa, transient hot wire	0.04164 W/m/K
473.3 K, 47 kPa, hot wire	0.02401 W/m/K
473.3 K, 425 kPa, hot wire	0.02526 W/m/K
473.31 K, 5936 kPa, transient hot wire	0.03955 W/m/K
473.33 K, 202 kPa, hot wire	0.02458 W/m/K
473.33 K, 7818 kPa, transient hot wire	0.04161 W/m/K
473.33 K, 33947 kPa, transient hot wire	0.05683 W/m/K
473.33 K, 49216 kPa, transient hot wire	0.06307 W/m/K
473.34 K, 203 kPa, hot wire	0.02431 W/m/K
473.34 K, 33948 kPa, transient hot wire	0.05717 W/m/K
473.35 K, 47 kPa, hot wire	0.02449 W/m/K
473.35 K, 49221 kPa, transient hot wire	0.06272 W/m/K
473.36 K, 47 kPa, hot wire	0.02437 W/m/K
473.36 K, 606 kPa, hot wire	0.02606 W/m/K
473.36 K, 7821 kPa, transient hot wire	0.04152 W/m/K
473.37 K, 607 kPa, hot wire	0.0258 W/m/K
473.38 K, 420 kPa, hot wire	0.02536 W/m/K
473.38 K, 1887 kPa, transient hot wire	0.02681 W/m/K
473.38 K, 1913 kPa, transient hot wire	0.02688 W/m/K
473.38 K, 49255 kPa, transient hot wire	0.06283 W/m/K
473.39 K, 419 kPa, hot wire	0.0252 W/m/K
473.39 K, 1474 kPa, transient hot wire	0.02551 W/m/K

Source: the NIST ThermoML archive (doi:10.1021/acs.jced.8b00132)
